# Where a name gives a salt, the structure may show the parent alone.
# Biological target: T1, PKA catalytic domain (Homo sapiens, UniProt P17612)
# T1 construct: using the PKA catalytic domain from Upstate Biotechnology (#14-440); purchased Upstate Biotechnology 14-440
# Assay: Measurement of PKA kinase inhibitory activity (IC50), 33P-ATP filter plate assay
# Type: biochemical
# Conditions: 1 nM enzyme, 40 μM ATP/γ33P-ATP, 5 μM substrate […], 20 minutes
# Method: Compounds of the invention can be tested for PK inhibitory activity using the PKA catalytic domain from Upstate Biotechnology (#14-440) and the 9 residue PKA specific peptide ([…]), also from Upstate Biotechnology (#12-257), as the substrate. A final concentration of 1 nM enzyme is used in a buffer that includes 20 mM MOPS pH 7.2, 40 μM ATP/γ^33P-ATP and 5 μM substrate. Compounds are added in dimethylsulphoxide (DMSO) solution to a final DMSO concentration of 2.5%. The reaction is allowed to proceed for 20 minutes before addition of excess orthophosphoric acid to quench activity. Unincorporated γ^33P-ATP is then separated from phosphorylated proteins on a Millipore MAPH filter plate. The plates are washed, scintillant is added and the plates are then subjected to counting on a Packard Topcount.
# The % inhibition of the PKA activity is calculated and plotted in order to determine the concentration of test compound required to inhibit 50% of the […] activity (IC50).
row,IC50,SMILES
1,< 1000 nM,"CNCC(c1ccc(Cl)cc1)c1ccc(-c2ncnc3ccsc23)cc1 (stereo not shown) [Example 1, [2-(4-Chloro-phenyl)-2-(4-thieno[3,2-d]-pyrimidin-4-yl-phenyl)-ethyl]-methyl-amine bis-trifluoroacetate]"
2,< 1000 nM,"Clc1ccc(C2(c3ccc(-c4ncnc5ccsc45)cc3)CCNCC2)cc1 [Example 4, 4-{4-[4-(4-Chloro-phenyl)-piperidin-4-yl]-phenyl}-thieno[3,2-d]pyrimidine formate]"

# Biological target: T2, PKB-PIF (Homo sapiens, UniProt P31751)
# T2 construct: PIF (fusion partner); made in house
# Assay: Measurement of PKB kinase inhibitory activity (IC50), 33P-ATP filter plate assay
# Type: biochemical
# Conditions: 0.6 nM enzyme, 30 μM ATP/γ33P-ATP, 25 μM AKTide-2T substrate, 20 minutes
# Text: The inhibition of protein kinase B (PKB) activity by compounds can be determined determined essentially as described by Andjelkovic et al. (Mol. Cell. Biol. 19, 5061-5072 (1999)) but using a fusion protein described as PKB-PIF and described in full by Yang et al (Nature Structural Biology 9, 940-944 (2002)). The protein is purified and activated with PDK1 as described by Yang et al. The peptide AKTide-2T (H-A-R-K-R-E-R-T-Y-S-F-G-H-H-A-OH) obtained from Calbiochem (#123900) is used as a substrate. A final concentration of 0.6 nM enzyme is used in a buffer that includes 20 mM MOPS pH 7.2, 30 μM ATP/γ^33P-ATP and 25 μM substrate. Compounds are added in DMSO solution to a final DMSO concentration of 2.5%. The reaction is allowed to proceed for 20 minutes before addition of excess orthophosphoric acid to quench activity. The reaction mixture is transferred to a phosphocellulose filter plate where the peptide binds and the unused ATP is washed away. After washing, scintillant is added and the incorporated activity measured by scintillation counting.
# The % inhibition of the PKB activity is calculated and plotted in order to determine the concentration of test compound required to inhibit 50% of the PKB activity (IC50).
# T2 sequence (P31751 with tags, fused parts or gaps limits assumed): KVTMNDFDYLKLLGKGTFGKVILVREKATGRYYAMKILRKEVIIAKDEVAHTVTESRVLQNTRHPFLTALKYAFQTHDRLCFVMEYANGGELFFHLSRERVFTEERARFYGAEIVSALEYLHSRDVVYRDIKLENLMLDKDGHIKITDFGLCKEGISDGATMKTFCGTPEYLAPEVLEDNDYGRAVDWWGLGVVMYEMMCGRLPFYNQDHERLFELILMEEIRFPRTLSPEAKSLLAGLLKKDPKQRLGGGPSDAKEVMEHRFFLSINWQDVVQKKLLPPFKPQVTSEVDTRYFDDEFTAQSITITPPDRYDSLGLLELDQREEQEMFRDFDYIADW
row,SMILES,IC50
1,"NC1CCN(c2ncnc3ccsc23)CC1 [Example 6, 1-Thieno[3,2-d]pyrimidin-4-ylpiperidin-4-ylamine]",< 5000 nM
2,"NC1(Cc2ccc(Cl)cc2)CCN(c2ncnc3ccsc23)CC1 [Example 7, 4-(4-Chlorobenzyl)-1-thieno[3,2-d]pyrimidin-4-ylpiperidin-4-ylamine]",< 1000 nM
3,"NC(c1ccc(Cl)cc1)C1CCN(c2ncnc3ccsc23)CC1 (stereo not shown) [Example 8, C-(4-Chlorophenyl)-C-(1-thieno[3,2-d]pyrimidin-4-ylpiperidin-4-yl)methylamine]",< 1000 nM
4,"NC1CCN(c2ncnc3sccc23)CC1 [Example 9, 1-Thieno[2,3-d]pyrimidin-4-ylpiperidin-4-ylamine]",< 50000 nM
5,"NC1CCN(c2ccnc3c2C(=O)C(=O)N3)CC1 [Example 10, 4-(4-Amino-piperidin-1-yl)-1H-pyrrolo[2,3-b]pyridine-2,3-dione]",< 50000 nM
6,"NC1(Cc2ccc(Cl)cc2)CCN(c2ccnc3c2OCC(=O)N3)CC1 [Example 11, 8-[4-Amino-4-(4-chloro-benzyl)-piperidin-1-yl]-4H-pyrido[3,2-b][1,4]oxazin-3-one]",< 5000 nM

# More lines, now with the values ahead:
row,IC50,SMILES
1,< 1000 nM,"CNCC(c1ccc(Cl)cc1)c1ccc(-c2ncnc3ccsc23)cc1 (stereo not shown) [Example 1, [2-(4-Chloro-phenyl)-2-(4-thieno[3,2-d]-pyrimidin-4-yl-phenyl)-ethyl]-methyl-amine bis-trifluoroacetate]"
2,< 1000 nM,"NCCC(c1ccc(Cl)cc1)c1ccc(-c2ncnc3ccsc23)cc1 (stereo not shown) [Example 2, 3-(4-Chloro-phenyl)-3-(4-thieno[3,2-d]pyrimidin-4-yl-phenyl)-propylamine]"
3,< 1000 nM,"NCC(c1ccc(Cl)cc1)N1CCN(c2ncnc3ccsc23)CC1 (stereo not shown) [Example 3, 2-(4-Chloro-phenyl)-2-(4-thieno[3,2-d]pyrimidin-4-yl-piperazin-1-yl)-ethylamine formate]"
4,< 1000 nM,"Clc1ccc(C2(c3ccc(-c4ncnc5ccsc45)cc3)CCNCC2)cc1 [Example 4, 4-{4-[4-(4-Chloro-phenyl)-piperidin-4-yl]-phenyl}-thieno[3,2-d]pyrimidine formate]"
5,< 1000 nM,"NC1(C(=O)NCc2ccc(Cl)cc2)CCN(c2ncnc3ccsc23)CC1 [Example 5, 4-Amino-1-thieno[3,2-d]pyrimidin-4-yl-piperidine-4-carboxylic acid 4-chloro-benzylamide]"

# From patent publication US20090124610A1, “PHARMACEUTICAL COMPOUNDS” (priority 2006, published 2009)
